Experimental data taken from publication PMC5513037, “Examining the influence of specificity ligands and ATP-competitive ligands on the overall effectiveness of bivalent kinase inhibitors” (Proteome Science, 2017).
pIC50: −log10 of the molar value.

Legend:
Assay in all cases: KAM-matrix competition in K562 lysate;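 on 0.001 uM KAM: median log10 fold change of treatment over DMSO control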;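 on 0.01 uM KAM: median log10 fold change of treatment over DMSO control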;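 on 0.1 uM KAM: median log10 fold change of treatment over DMSO control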;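 on 1 uM KAM: median log10 fold change of treatment over DMSO control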;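 on 10 uM KAM: median log10 fold change of treatment over DMSO control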
Assay type in all cases: binding
CDK7 = target: T1, CDK7 (Homo sapiens, UniProt P50613)
T1 construct: endogenous in cells; host or cells: K562
Protocol: (§1) Supplement 12953_2017_125_MOESM1_ESM.zip/MS_Supp Info.xlsx, sheet "KAM" | column: 10 uM KAM; 1 uM KAM; 0.1 uM KAM; 0.01 uM KAM; 0.001 uM KAM; RB50

MAP3K6 = target: T2, MAP3K6 (Homo sapiens, UniProt O95382)
T2 construct: endogenous in cells; host or cells: K562
T2 sequence (O95382 1-1288): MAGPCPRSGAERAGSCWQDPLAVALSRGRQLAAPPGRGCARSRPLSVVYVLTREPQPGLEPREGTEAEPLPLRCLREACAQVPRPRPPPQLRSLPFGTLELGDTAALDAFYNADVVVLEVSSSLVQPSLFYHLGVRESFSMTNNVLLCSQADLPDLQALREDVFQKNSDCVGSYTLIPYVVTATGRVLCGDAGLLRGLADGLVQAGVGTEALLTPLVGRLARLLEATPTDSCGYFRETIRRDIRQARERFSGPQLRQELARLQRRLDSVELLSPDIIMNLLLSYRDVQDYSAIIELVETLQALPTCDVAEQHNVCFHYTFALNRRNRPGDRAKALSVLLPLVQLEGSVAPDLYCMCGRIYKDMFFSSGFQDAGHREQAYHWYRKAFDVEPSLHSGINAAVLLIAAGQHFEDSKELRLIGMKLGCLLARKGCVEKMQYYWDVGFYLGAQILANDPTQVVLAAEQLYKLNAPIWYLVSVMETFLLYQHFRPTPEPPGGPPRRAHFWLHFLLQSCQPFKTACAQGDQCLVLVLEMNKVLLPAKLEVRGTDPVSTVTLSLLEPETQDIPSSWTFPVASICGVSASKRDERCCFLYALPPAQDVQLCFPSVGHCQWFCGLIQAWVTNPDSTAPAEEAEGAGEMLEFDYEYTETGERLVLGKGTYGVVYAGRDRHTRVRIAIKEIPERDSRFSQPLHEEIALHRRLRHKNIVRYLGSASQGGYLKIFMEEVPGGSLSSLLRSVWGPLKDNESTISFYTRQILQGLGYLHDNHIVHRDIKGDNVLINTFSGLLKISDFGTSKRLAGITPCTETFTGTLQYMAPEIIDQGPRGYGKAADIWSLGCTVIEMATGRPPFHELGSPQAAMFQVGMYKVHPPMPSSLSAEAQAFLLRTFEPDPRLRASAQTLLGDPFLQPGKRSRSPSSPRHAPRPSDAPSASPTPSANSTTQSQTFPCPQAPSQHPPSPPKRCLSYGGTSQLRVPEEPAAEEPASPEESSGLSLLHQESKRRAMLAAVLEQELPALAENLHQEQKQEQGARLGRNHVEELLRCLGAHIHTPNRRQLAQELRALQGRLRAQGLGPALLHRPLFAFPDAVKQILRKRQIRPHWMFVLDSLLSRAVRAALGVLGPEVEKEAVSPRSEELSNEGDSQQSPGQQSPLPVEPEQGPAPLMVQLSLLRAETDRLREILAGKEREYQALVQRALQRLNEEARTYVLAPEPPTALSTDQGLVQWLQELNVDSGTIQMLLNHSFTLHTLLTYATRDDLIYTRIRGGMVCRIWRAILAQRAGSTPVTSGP
Protocol: as §1

PAK6 = target: T3, PAK6 (Homo sapiens, UniProt Q9NQU5)
T3 construct: endogenous in cells; host or cells: K562
Protocol: as §1

PRKACA = target: T4, PRKACA (Homo sapiens, UniProt P17612);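 on 0.001 uM KAM: median log10 fold change of treatment over DMSO control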;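 on 0.01 uM KAM: median log10 fold change of treatment over DMSO control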;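 on 0.1 uM KAM: median log10 fold change of treatment over DMSO control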;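 on 1 uM KAM: median log10 fold change of treatment over DMSO control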;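 on 10 uM KAM: median log10 fold change of treatment over DMSO control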
T4 construct: endogenous in cells; host or cells: K562 lysate
Protocol: as §1

STK26 = target: T5, STK26 (Homo sapiens, UniProt Q9P289)
T5 construct: endogenous in cells; host or cells: K562
Protocol: as §1

TNIK = target: T6, TNIK (Homo sapiens, UniProt Q9UKE5)
T6 construct: K562 cell pellets were thawed on ice and resuspended in cold Lysis buffer; endogenous in cells; host or cells: K562
Protocol: as §1

ZAK = target: T7, ZAK (Homo sapiens, UniProt Q9NYL2)
T7 construct: endogenous in cells; host or cells: K562 cell lysate
Protocol: as §1

[1] = read-out: RB50 (the source's name)

T5 sequence (Q9P289 whole entry): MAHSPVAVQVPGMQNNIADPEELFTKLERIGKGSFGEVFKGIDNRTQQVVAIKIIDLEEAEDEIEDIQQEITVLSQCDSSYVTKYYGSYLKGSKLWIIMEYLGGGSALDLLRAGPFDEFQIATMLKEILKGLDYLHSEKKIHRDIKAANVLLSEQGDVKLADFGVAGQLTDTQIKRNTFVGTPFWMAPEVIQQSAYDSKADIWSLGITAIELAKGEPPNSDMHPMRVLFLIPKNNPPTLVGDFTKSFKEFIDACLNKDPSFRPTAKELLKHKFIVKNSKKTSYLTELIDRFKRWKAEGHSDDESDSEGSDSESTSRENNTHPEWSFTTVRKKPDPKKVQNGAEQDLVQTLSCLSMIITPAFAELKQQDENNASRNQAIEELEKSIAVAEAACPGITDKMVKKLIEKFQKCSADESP
T7 sequence (Q9NYL2 whole entry): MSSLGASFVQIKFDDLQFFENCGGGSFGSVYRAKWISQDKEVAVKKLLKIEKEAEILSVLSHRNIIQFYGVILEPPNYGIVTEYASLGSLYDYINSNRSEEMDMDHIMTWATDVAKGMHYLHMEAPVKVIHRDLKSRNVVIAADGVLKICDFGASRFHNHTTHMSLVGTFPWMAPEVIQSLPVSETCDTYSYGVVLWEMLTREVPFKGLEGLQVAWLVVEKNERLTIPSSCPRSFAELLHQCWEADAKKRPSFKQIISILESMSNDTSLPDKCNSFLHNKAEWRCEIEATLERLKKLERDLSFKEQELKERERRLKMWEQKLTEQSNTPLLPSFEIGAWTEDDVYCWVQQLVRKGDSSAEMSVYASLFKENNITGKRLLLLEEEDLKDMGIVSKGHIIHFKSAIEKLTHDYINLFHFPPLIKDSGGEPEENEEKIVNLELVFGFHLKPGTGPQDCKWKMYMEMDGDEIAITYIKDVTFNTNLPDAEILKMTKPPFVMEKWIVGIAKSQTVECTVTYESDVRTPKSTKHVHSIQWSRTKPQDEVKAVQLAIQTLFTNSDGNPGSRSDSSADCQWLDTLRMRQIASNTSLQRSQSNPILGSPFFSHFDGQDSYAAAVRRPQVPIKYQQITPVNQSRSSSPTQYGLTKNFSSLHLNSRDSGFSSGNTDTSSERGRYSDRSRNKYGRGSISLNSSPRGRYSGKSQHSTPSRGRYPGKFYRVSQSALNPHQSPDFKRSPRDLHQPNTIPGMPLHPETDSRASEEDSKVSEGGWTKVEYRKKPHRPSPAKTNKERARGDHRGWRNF
T3 sequence (Q9NQU5 whole entry): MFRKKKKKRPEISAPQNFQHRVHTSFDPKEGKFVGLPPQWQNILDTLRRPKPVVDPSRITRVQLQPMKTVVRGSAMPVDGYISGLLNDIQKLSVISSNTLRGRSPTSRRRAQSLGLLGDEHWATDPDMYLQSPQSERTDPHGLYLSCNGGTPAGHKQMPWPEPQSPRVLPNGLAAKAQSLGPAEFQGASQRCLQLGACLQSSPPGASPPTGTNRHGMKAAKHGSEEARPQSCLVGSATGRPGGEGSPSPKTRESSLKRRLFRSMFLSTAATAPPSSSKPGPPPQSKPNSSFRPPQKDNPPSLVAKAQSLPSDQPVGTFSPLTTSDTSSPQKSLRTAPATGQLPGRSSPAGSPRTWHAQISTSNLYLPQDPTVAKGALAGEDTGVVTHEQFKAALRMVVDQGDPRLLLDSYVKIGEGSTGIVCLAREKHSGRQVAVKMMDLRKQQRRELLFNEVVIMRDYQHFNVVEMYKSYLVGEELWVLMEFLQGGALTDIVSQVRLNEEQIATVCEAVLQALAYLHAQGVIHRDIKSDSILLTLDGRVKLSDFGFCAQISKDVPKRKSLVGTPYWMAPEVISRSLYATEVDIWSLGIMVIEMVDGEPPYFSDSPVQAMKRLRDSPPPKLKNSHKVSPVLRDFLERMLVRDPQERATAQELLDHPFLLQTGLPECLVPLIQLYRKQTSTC
T6 sequence (Q9UKE5 whole entry): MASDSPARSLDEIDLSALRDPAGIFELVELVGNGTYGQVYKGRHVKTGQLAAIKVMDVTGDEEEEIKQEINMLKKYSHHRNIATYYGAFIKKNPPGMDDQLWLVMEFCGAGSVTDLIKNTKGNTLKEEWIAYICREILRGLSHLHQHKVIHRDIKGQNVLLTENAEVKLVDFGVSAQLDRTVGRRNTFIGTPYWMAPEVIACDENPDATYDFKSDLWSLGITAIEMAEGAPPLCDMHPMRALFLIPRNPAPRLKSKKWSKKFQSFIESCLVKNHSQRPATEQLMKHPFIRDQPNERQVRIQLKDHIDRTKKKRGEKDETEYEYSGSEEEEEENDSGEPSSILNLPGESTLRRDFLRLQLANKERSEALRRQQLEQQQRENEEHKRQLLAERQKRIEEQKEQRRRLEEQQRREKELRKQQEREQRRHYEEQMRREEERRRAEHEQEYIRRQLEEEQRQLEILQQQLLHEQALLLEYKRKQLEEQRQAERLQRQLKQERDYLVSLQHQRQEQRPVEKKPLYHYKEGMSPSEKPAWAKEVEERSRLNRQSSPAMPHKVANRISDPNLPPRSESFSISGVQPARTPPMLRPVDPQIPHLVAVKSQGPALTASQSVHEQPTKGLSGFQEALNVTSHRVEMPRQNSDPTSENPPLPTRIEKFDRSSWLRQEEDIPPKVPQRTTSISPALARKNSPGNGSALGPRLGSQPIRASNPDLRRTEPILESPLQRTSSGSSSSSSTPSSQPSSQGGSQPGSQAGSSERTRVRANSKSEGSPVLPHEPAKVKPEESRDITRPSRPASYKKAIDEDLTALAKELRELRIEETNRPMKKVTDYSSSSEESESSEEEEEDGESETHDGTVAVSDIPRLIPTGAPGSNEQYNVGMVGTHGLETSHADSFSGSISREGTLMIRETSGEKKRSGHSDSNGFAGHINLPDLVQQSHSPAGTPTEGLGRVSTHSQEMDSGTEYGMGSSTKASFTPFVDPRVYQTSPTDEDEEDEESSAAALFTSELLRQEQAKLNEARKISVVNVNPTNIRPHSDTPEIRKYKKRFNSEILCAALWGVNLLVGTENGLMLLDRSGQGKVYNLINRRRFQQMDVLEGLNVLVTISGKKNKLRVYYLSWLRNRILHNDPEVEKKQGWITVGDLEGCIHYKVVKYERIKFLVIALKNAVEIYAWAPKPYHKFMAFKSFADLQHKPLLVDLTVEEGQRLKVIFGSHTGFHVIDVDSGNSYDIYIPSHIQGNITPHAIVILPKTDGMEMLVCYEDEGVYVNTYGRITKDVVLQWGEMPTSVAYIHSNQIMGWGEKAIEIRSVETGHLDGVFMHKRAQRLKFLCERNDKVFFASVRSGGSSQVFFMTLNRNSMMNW
T1 sequence (P50613 2-346 limits assumed): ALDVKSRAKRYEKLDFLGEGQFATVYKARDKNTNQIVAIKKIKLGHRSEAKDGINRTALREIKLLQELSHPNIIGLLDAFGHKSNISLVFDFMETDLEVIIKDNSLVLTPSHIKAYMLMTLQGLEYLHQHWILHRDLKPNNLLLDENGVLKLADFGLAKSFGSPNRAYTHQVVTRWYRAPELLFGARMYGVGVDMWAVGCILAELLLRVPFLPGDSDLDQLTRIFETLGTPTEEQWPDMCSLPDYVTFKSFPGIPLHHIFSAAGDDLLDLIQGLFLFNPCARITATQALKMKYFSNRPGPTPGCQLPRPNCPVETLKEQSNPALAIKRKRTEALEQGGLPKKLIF
T1 sequence (P51946 whole entry partner): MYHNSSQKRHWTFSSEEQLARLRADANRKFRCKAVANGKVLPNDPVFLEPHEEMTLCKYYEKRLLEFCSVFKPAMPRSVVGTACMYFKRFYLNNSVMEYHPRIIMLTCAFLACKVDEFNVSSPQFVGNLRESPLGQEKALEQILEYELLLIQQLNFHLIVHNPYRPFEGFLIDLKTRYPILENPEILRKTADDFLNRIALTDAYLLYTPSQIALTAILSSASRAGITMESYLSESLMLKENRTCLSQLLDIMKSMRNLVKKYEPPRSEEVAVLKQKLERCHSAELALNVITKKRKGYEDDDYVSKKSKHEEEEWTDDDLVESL
T1 sequence (P51948 whole entry partner): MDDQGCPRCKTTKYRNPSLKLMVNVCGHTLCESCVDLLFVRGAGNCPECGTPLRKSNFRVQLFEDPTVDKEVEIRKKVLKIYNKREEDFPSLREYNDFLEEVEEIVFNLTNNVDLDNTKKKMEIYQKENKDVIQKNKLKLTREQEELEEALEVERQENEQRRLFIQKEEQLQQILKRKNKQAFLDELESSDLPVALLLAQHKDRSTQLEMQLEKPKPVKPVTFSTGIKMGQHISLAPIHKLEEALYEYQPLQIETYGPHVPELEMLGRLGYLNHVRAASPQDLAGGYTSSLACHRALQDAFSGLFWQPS

For `N#CCc1ccc(Nc2nc(NCCCN)cc(Nc3cc(C4CC4)[nH]n3)n2)cc1` [KAM], the “median Log10 fold change” value (CDK7; 0.001 uM KAM) was -0.0273, the “median Log10 fold change” value (CDK7; 0.01 uM KAM) was -0.01722 and the “median Log10 fold change” value (CDK7; 0.1 uM KAM) was -0.1187. The “median Log10 fold change” value (CDK7; 1 uM KAM) was -0.275, the “median Log10 fold change” value (CDK7; 10 uM KAM) was -0.3928 and the pIC50 (CDK7; [1]) was 5.78. The “median Log10 fold change” value (MAP3K6; 0.001 uM KAM) was -0.04109, the “median Log10 fold change” value (MAP3K6; 0.01 uM KAM) was -0.01116 and the “median Log10 fold change” value (MAP3K6; 0.1 uM KAM) was -0.09429. The “median Log10 fold change” value (MAP3K6; 1 uM KAM) was -0.1699, the “median Log10 fold change” value (MAP3K6; 10 uM KAM) was -0.3363 and the pIC50 (MAP3K6; [1]) was 5.27. For the same compound, the “median Log10 fold change” value (PAK6; 0.001 uM KAM) was -0.09371, the “median Log10 fold change” value (PAK6; 0.01 uM KAM) was 0.03145 and the “median Log10 fold change” value (PAK6; 0.1 uM KAM) was -0.196. The “median Log10 fold change” value (PAK6; 1 uM KAM) was -0.3777, the “median Log10 fold change” value (PAK6; 10 uM KAM) was -0.6349 and the pIC50 (PAK6; [1]) was 6.28. The pIC50 (PRKACA; KAM 0.001-10 uM, read-out: RB50 (the source's name)) was under 5.00, the “0.001 uM KAM” value (PRKACA; relative to 0 uM KAM = 0) was 0.01517 and the “0.01 uM KAM” value (PRKACA; relative to 0 uM KAM = 0) was -0.007672. The “0.1 uM KAM” value (PRKACA; relative to 0 uM KAM = 0) was 0.08573, the “1 uM KAM” value (PRKACA; relative to 0 uM KAM = 0) was 0.0122 and the “10 uM KAM” value (PRKACA; relative to 0 uM KAM = 0) was 0.04616. For the same compound, the “median Log10 fold change” value (STK26; 0.001 uM KAM) was -0.05178, the “median Log10 fold change” value (STK26; 0.01 uM KAM) was -0.01072 and the “median Log10 fold change” value (STK26; 0.1 uM KAM) was -0.2654. The “median Log10 fold change” value (STK26; 1 uM KAM) was -0.4176, the “median Log10 fold change” value (STK26; 10 uM KAM) was -0.5788 and the pIC50 (STK26; [1]) was 6.60. The “median Log10 fold change” value (TNIK; 0.001 uM KAM) was -0.02112, the “median Log10 fold change” value (TNIK; 0.01 uM KAM) was -0.02269 and the “median Log10 fold change” value (TNIK; 0.1 uM KAM) was -0.2334. The “median Log10 fold change” value (TNIK; 1 uM KAM) was -0.3546, the “median Log10 fold change” value (TNIK; 10 uM KAM) was -0.3559 and the pIC50 (TNIK; [1]) was 6.19. The “median Log10 fold change” value (ZAK; 0.001 uM KAM) was -0.0362, the “median Log10 fold change” value (ZAK; 0.01 uM KAM) was -0.03172 and the “median Log10 fold change” value (ZAK; 0.1 uM KAM) was -0.2036. For the same compound, the “median Log10 fold change” value (ZAK; 1 uM KAM) was -0.2767, the “median Log10 fold change” value (ZAK; 10 uM KAM) was -0.5362 and the pIC50 (ZAK; [1]) was 6.00.
